Marks after values point to notes of the source that are not given here.
How the values were obtained:
[1] = molecular target: T1, hNET (Homo sapiens, UniProt P23975); assay: fluorescence-based norepinephrine reuptake inhibition assay (Tsuruda et al. 2010; data indicated by an asterisk); format: cell-based; parameters: expressed in transfected cells; host or cells: HEK-293; conditions: fluorescence-based assay (values with asterisk)
[2] = molecular target: T2, hSERT (Homo sapiens, UniProt P31645); assay: fluorescence-based serotonin reuptake inhibition assay (Tsuruda et al. 2010; data indicated by an asterisk); format: cell-based; parameters: expressed in transfected cells; host or cells: HEK-293; conditions: fluorescence-based assay (values with asterisk); for IC50: read-out: SERT pIC50 (converted)
[3] = molecular target: T2, hSERT; assay: hSERT membrane radioligand binding assay (3H-citalopram), Assay 1; conditions: SERT pKi, hSERT HEK-293 membranes, 1.0 nM 3H-citalopram; values given as lower bounds
[4] = molecular target: T1, hNET; assay: hNET membrane radioligand binding assay (3H-nisoxetine), Assay 1
[5] = molecular target: T1, hNET; assay: hNET neurotransmitter uptake assay (3H-NE), Assay 2; format: cell-based; parameters: expressed in transfected cells; host or cells: HEK-293; conditions: norepinephrine reuptake inhibition, 3H-NE uptake, HEK-293 hNET cells (values without asterisk); read-out: NET pIC50 (converted)
[6] = molecular target: T2, hSERT; assay: hSERT neurotransmitter uptake assay (3H-5-HT), Assay 2; format: cell-based; parameters: expressed in transfected cells; host or cells: HEK-293; conditions: serotonin reuptake inhibition, 3H-5-HT uptake, HEK-293 hSERT cells (values without asterisk); read-out: SERT pIC50 (converted)
[7] = norepinephrine reuptake inhibition, read-out: NET pIC50 (converted)

T2 sequence (P31645 whole entry): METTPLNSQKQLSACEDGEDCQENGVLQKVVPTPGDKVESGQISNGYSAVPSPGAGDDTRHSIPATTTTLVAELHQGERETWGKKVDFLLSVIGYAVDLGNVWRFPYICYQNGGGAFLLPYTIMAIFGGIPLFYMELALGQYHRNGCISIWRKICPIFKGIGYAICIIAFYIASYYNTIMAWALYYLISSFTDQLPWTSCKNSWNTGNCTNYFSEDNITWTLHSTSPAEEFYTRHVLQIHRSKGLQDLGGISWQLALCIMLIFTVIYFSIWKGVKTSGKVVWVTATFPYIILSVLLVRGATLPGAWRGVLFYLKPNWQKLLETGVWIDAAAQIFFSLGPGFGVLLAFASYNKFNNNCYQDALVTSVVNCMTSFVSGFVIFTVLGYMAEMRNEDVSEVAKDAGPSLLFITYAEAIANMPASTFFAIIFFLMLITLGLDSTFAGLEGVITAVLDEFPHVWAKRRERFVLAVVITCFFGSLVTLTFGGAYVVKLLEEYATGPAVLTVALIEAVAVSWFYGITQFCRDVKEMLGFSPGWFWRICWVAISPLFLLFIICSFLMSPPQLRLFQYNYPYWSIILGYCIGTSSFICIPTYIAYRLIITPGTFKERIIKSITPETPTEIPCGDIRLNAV
T1 sequence (P23975 whole entry): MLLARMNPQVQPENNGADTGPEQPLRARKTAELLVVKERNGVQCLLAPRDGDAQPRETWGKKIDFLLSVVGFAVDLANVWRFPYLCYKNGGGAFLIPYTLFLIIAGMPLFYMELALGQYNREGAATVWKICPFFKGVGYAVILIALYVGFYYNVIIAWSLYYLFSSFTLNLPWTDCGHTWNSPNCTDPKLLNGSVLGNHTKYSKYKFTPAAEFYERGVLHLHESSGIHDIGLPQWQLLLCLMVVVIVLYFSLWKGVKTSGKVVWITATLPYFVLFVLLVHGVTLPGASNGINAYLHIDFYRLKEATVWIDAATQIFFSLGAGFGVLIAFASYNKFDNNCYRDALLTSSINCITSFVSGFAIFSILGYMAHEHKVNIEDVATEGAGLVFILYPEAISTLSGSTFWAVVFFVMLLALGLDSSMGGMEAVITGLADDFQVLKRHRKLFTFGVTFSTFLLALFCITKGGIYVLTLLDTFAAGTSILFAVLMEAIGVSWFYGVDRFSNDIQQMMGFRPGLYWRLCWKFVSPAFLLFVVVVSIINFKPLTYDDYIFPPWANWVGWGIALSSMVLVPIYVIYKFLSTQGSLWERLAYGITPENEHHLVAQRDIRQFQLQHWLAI

| Compound | IC50 [1, 7] | IC50 [2] | SERT pIC50 [2] | IC50 ([1]; NET pIC50, norepinephrine reuptake inhibition) | Ki [3] | Ki [4] | IC50 [5] | IC50 [6] |
| --- | --- | --- | --- | --- | --- | --- | --- | --- |
| Cc1ccc(OC(C2CCCC2)C2CCNC2)c(Cl)c1 (mixture of isomers) [Example 17, 3-[(2-Chloro-4-methylphenoxy)cyclopentylmethyl]pyrrolidine] | ≤ 10 nM | ≤ 10 nM | – | – | – | – | – | – |
| FC(F)(F)c1c(Cl)cccc1OC(C1CCCC1)C1CCNC1 (single isomer, unassigned) [Example 18-2, 3-[(3-Chloro-2-trifluoromethylphenoxy)cyclopentylmethyl]pyrrolidine] | ≤ 100 nM | ≤ 10 nM | – | – | – | – | – | – |
| FC(F)(F)c1c(Cl)cccc1OC(C1CCCC1)C1CCNC1 (single isomer, unassigned) [Example 18-3, 3-[(3-Chloro-2-trifluoromethylphenoxy)cyclopentylmethyl]pyrrolidine] | ≤ 10 nM | ≤ 100 nM | – | – | – | – | – | – |
| Clc1ccc(OC(C2CCCC2)C2CCNC2)c(Cl)c1 (single isomer, unassigned) [Example 18-4, 3-[Cyclopentyl-(2,4-dichlorophenoxy)methyl]pyrrolidine] | ≤ 100 nM | ≤ 10 nM | – | – | – | – | – | – |
| Clc1ccc(OC(C2CCCC2)C2CCNC2)c(Cl)c1 (single isomer, unassigned) [Example 18-5, 3-[Cyclopentyl-(2,4-dichlorophenoxy)methyl]pyrrolidine] | ≤ 10 nM | – | ≧8.0* | – | – | – | – | – |
| CC[C@@H](Oc1ccc(Cl)cc1)[C@H]1CCNC1 [Example 2-4, (S)-3-[(R)-1-(4-Chlorophenoxy)propyl]pyrrolidine] | ≤ 100 nM | ≤ 10 nM | – | – | – | – | – | – |
| CC[C@@H](Oc1ccc(Cl)c(F)c1)[C@H]1CCNC1 [Example 2-6, (S)-3-[(R)-1-(4-Chloro-3-fluorophenoxy)propyl]pyrrolidine] | ≤ 100 nM | ≤ 10 nM | – | – | – | – | – | – |
| CC[C@@H](Oc1ccc(Cl)c(Cl)c1)[C@H]1CCNC1 [Example 2-8, (S)-3-[(R)-1-(3,4-Dichlorophenoxy)propyl]pyrrolidine] | ≤ 100 nM | ≤ 10 nM | – | – | – | – | – | – |
| CC[C@H](Oc1cc(F)cc(Cl)c1)[C@H]1CCNC1 [Example 2-10, (S)-3-[(S)-1-(3-Chloro-5-fluorophenoxy)propyl]pyrrolidine] | ≤ 10 nM | ≤ 100 nM | – | – | – | – | – | – |
| CC[C@@H](Oc1cc(F)cc(Cl)c1)[C@H]1CCNC1 [Example 2-11, (S)-3-[(R)-1-(3-Chloro-5-fluorophenoxy)propyl]pyrrolidine] | ≤ 10 nM | ≤ 100 nM | – | – | – | – | – | – |
| CC[C@@H](Oc1ccc(Cl)c(C)c1)[C@H]1CCNC1 [Example 2-14, (S)-3-[(R)-1-(4-Chloro-3-methylphenoxy)propyl]pyrrolidine] | ≤ 100 nM | ≤ 10 nM | – | – | – | – | – | – |
| CC[C@H](Oc1cc(C)c(Cl)c(C)c1)[C@H]1CCNC1 [Example 2-15, (S)-3-[(S)-1-(4-Chloro-3,5-dimethylphenoxy)propyl]pyrrolidine] | ≤ 100 nM | ≤ 10 nM | – | – | – | – | – | – |
| CC[C@H](Oc1cc(Cl)cc(OC)c1)[C@H]1CCNC1 [Example 2-20, (S)-3-[(S)-1-(3-Chloro-5-methoxyphenoxy)propyl]pyrrolidine] | ≤ 100 nM | ≤ 100 nM | – | – | – | – | – | – |
| CC[C@@H](Oc1ccccc1Cl)[C@H]1CCNC1 [Example 2-24, (S)-3-[(R)-1-(2-Chlorophenoxy)propyl]pyrrolidine] | ≤ 100 nM | ≤ 100 nM | – | – | – | – | – | – |
| CC[C@@H](Oc1cccc(Cl)c1Cl)[C@H]1CCNC1 [Example 2-31, (S)-3-[(R)-1-(2,3-Dichlorophenoxy)propyl]pyrrolidine] | ≤ 10 nM | ≤ 10 nM | – | – | – | – | – | – |
| CC[C@@H](Oc1ccc(Cl)cc1Cl)[C@H]1CCNC1 [Example 2-34, (S)-3-[(R)-1-(2,4-Dichlorophenoxy)propyl]pyrrolidine] | – | ≤ 10 nM | – | ≤ 100 nM | – | – | – | – |
| CC[C@H](Oc1c(F)cc(Cl)cc1Cl)[C@H]1CCNC1 [Example 2-35, (S)-3-[(S)-1-(2,4-Dichloro-6-fluorophenoxy)propyl]pyrrolidine] | ≤ 10 nM | ≤ 10 nM | – | – | – | – | – | – |
| CC[C@@H](Oc1c(F)ccc(OC)c1Cl)[C@H]1CCNC1 [Example 2-45, (S)-3-[(R)-1-(2-Chloro-6-fluoro-3-methoxyphenoxy)propyl]pyrrolidine] | ≤ 10 nM | ≤ 10 nM | – | – | – | – | – | – |

| Compound | IC50 [1, 7] | IC50 [2] | SERT pIC50 [2] | IC50 ([1]; NET pIC50, norepinephrine reuptake inhibition) | Ki [3] | Ki [4] | IC50 [5] | IC50 [6] |
| --- | --- | --- | --- | --- | --- | --- | --- | --- |
| CC[C@H](Oc1ccc(C)c(F)c1F)[C@H]1CCNC1 [Example 2-51, (S)-3-[(S)-1-(2,3-Difluoro-4-methylphenoxy)propyl]pyrrolidine] | ≤ 10 nM | ≤ 10 nM | – | – | – | – | – | – |
| Cc1cc(O[C@H](C2CC2)[C@H]2CCNC2)c(Cl)cc1Cl [Example 16-73, (S)-3-[(R)cyclopropyl-(2,4-dichloro-5-methylphenoxy)methyl]pyrrolidine] | – | ≤ 100 nM | – | – | ≤ 10 nM | ≤ 3160 nM | – | – |
| CCc1cc(F)cc(F)c1O[C@@H](C1CC1)[C@H]1CCNC1 [Example 16-81, (S)-3-[(S)cyclopropyl-(2-ethyl-4,6-difluorophenoxy)-methyl]pyrrolidine] | – | – | – | – | ≤ 10 nM | ≤ 10 nM | ≤ 10 nM | ≤ 100 nM |
| CSc1cccc(O[C@@H](C2CC2)[C@H]2CCNC2)c1 [Example 16-86, (S)-3-[(S)cyclopropyl-(3-methylsulfanylphenoxy)methyl]pyrrolidine] | – | – | – | – | ≤ 10 nM | ≤ 10 nM | ≤ 10 nM | ≤ 100 nM |
| Fc1ccc(O[C@@H](C2CC2)[C@H]2CCNC2)cc1Cl [Example 16-89, (S)-3-[(S)-(3-Chloro-4-fluorophenoxy)cyclopropylmethyl]pyrrolidine] | – | – | – | – | ≤ 10 nM | ≤ 10 nM | ≤ 100 nM | ≤ 100 nM |
| Fc1cc(O[C@H](C2CC2)[C@H]2CCNC2)ccc1Cl [Example 16-91, (S)-3-[(R)-(4-Chloro-3-fluorophenoxy)cyclopropylmethyl]pyrrolidine] | – | – | – | – | ≤ 10 nM | ≤ 10 nM | ≤ 10 nM | ≤ 10 nM |
| Fc1cc(O[C@@H](C2CC2)[C@H]2CCNC2)ccc1Cl [Example 16-93, (S)-3-[(S)-(4-Chloro-3-fluorophenoxy)cyclopropylmethyl]pyrrolidine] | – | – | – | – | ≤ 10 nM | ≤ 10 nM | ≤ 10 nM | ≤ 10 nM |
| Clc1cc(Cl)cc(O[C@@H](C2CC2)[C@H]2CCNC2)c1 [Example 16-96, (S)-3-[(S)cyclopropyl-(3,5-dichlorophenoxy)methyl]pyrrolidine] | – | – | – | – | ≤ 10 nM | ≤ 10 nM | ≤ 10 nM | ≤ 10 nM |
| Clc1cc(Cl)cc(O[C@H](C2CC2)[C@H]2CCNC2)c1 [Example 16-97, (S)-3-[(R)cyclopropyl-(3,5-dichlorophenoxy)methyl]pyrrolidine] | – | – | – | – | ≤ 10 nM | ≤ 10 nM | ≤ 10 nM | ≤ 10 nM |
| Fc1cc(Cl)cc(O[C@@H](C2CC2)[C@H]2CCNC2)c1 [Example 16-98, (S)-3-[(S)-(3-Chloro-5-fluorophenoxy)cyclopropylmethyl]pyrrolidine] | – | – | – | – | ≤ 10 nM | ≤ 10 nM | ≤ 10 nM | ≤ 100 nM |
| Fc1cc(Cl)cc(O[C@H](C2CC2)[C@H]2CCNC2)c1 [Example 16-99, (S)-3-[(R)-(3-Chloro-5-fluorophenoxy)cyclopropylmethyl]pyrrolidine] | – | – | – | – | ≤ 10 nM | ≤ 10 nM | ≤ 10 nM | ≤ 100 nM |
| Clc1ccc(O[C@@H](C2CC2)[C@H]2CCNC2)cc1 [Example 16-103, (S)-3-[(S)-(4-Chlorophenoxy)cyclopropylmethyl]pyrrolidine] | – | – | – | – | ≤ 10 nM | ≤ 10 nM | ≤ 10 nM | ≤ 10 nM |
| Clc1cccc(Cl)c1O[C@@H](C1CCCCC1)[C@H]1CCNC1 [Example 19, (S)-3-[(S)-Cyclohexyl-(2,6-dichlorophenoxy)methyl]pyrrolidine] | – | – | – | – | ≤ 10 nM | ≤ 10 nM | ≤ 10 nM | ≤ 100 nM |
| Fc1cccc(O[C@H](C2CCCCC2)[C@H]2CCNC2)c1Cl [Example 20-5, (S)-3-[(R)-(2-Chloro-3-fluorophenoxy)cyclohexylmethyl]pyrrolidine] | – | – | – | – | ≤ 10 nM | ≤ 10 nM | ≤ 10 nM | ≤ 10 nM |
| C=CC[C@H](Oc1cccc(Cl)c1C)[C@H]1CCNC1 [Example 24, (S)-3-[(S)-1-(3-Chloro-2-methylphenoxy)but-3-enyl]-pyrrolidine] | – | – | – | – | ≤ 10 nM | ≤ 10 nM | ≤ 10 nM | ≤ 10 nM |
| C=CC[C@H](Oc1ccc(Cl)cc1)[C@H]1CCNC1 [Example 25-1, (S)-3-[(S)-1-(4-Chlorophenoxy)but-3-enyl]pyrrolidine] | – | – | – | – | ≤ 10 nM | ≤ 10 nM | ≤ 10 nM | ≤ 10 nM |
| C#CC(Oc1c(Cl)ccc(Cl)c1Cl)[C@H]1CCNC1 (stereo partly drawn) [Example 26, (S)-3-[1(2,3,6-Trichlorophenoxy)prop-2-ynyl]pyrrolidine] | – | – | – | – | ≤ 10 nM | ≤ 10 nM | ≤ 10 nM | ≤ 100 nM |
| C#CC(Oc1cccc(Cl)c1Cl)[C@H]1CCNC1 (stereo partly drawn) [Example 27-1, (S)-3-[1-(2,3-Dichlorophenoxy)prop-2-ynyl]pyrrolidine] | – | – | – | – | ≤ 10 nM | ≤ 10 nM | ≤ 10 nM | ≤ 100 nM |

— patent US7994209B2, “3-phenoxymethylpyrrolidine compounds” (Theravance, Inc., priority 2009, dated 2011)
